The nature of this experiment: Broad-spectrum taste masking test on decoctions of extremely bitter Chinese herbal medicine slices. Format: in vivo, healthy volunteers. The arrangement: key: reduction in bitterness degrees on a 5-degree graduation scale. To be noted: 0.1% taste masking agent in 40% ethanol. The protocol:
According to the standard of decocting 100 ml of liquid from 10 g of dry Chinese herbal medicine slices (decoction method: use a stainless steel container, and keep for 20 minutes after boiling), from 300 commonly used Chinese herbal medicine slices, combined with the Chinese Pharmacopoeia, more than 20 Chinese herbal medicines with bitter or extremely bitter properties written in the pharmacopoeia were selected, including Bletilla striata, Cortex qin, Stephania tetrandra, Apricot kernel, Belamcanda chinensis, Angelica dahurica, Lotus seed heart, Toosendan fruit, Andrographis paniculata, Sophora flavescens, Coptis chinensis, Gentiana scabra, Forsythia suspensa, Sophora japonica, Phellodendron amurense, Scutellaria baicalensis, Platycodon grandiflorum, Notopterygium wilfordii, Saposhnikovia divaricata, Perilla frutescens, Zanthoxylum bungeana, Osmanthus fragrans, Sophora flavescens, and Chrysanthemum officinale, totally 24 kinds of Chinese herbal medicines.
Finally, through the 5-degree graduation method, 2 species with a bitterness higher than 3.5 (moderate bitterness) and 7 species with a bitterness higher than 5 degrees (highly bitter, extremely bitter, accompanied by nausea) were screened out, a total of 9 species (Angelica pubescens, Lotus Seed Heart, Toosendan, Andrographis paniculata, Sophora flavescens, Coptis chinensis, Gentiana scabra, Forsythia suspensa, Sophora japonica) are selected as bitterness representatives to participate in the bitterness masking experiment. (Note: The bitterness of Coptis chinensis slices can reach 5.2 after 20 minutes of water decoction. The reference standard solution is 90-degree water brewing Coptis chinensis powder, it is automatically cooled to obtain a solution with a bitter taste of 4.0. Because Coptis chinensis has been used as a standard bitter liquid, it is no longer used).
The experimental method is the same as the previous part.

Where [1] appears, read: Andrographis paniculata, original bitterness 5.
Setting [2] is: Forsythia suspensa, original bitterness 3.
Setting [3] is: Gentiana, original bitterness 5.
Setting [4] is: Lotus seed heart, original bitterness 5.
Where [5] appears, read: Sophora flavescens, original bitterness 5.
[6] abbreviates: Toulianzi, original bitterness 5.

Structures are written as SMILES.

Take `C=CC(C)(O)CCC=C(C)C` (stereo not drawn) [Linalool, linalool]: the Bitterness reduction value runs as follows: under setting [1], 0.8; under setting [2], 2; under setting [3], 1.2; under setting [4], 1.6; (Puhuo, original bitterness 5) 2.5; under setting [5], 0.5. This compound registered a Bitterness reduction value under setting [6] of 1.1.
Take `O=CC=Cc1ccccc1` [Cinnamaldehyde, 3-phenyl-2-propenal]: the Bitterness reduction value reads like this: under setting [1], 4; under setting [2], 1.7; under setting [3], 4.2; under setting [4], 2.3; (Puhuo, original bitterness 5) 4.2; under setting [5], 2.3. This compound had a Bitterness reduction value under setting [6] of 3.5.
Take `CC(C)=CCCC(C)=CC=O` [Citral, citral]: the Bitterness reduction value by setting is: under setting [1], 1.5; under setting [2], 2.5; under setting [3], 3.7; under setting [4], 3.5; (Puhuo, original bitterness 5) 3.75; under setting [5], 1.7. Under setting [6], this compound gave a Bitterness reduction value of 1.5.

These data come from patent US20250108023A1, “Products for Masking Bitterness” (The Third People's Hospital of Henan Province, priority 2023, published 2025).
